Measured values from patent US11400101B2, “Treatment of allergic rhinitis using a combination of mometasone and olopatadine” (GLENMARK SPECIALTY S.A., priority 2013, dated 2022).

Columns and labels:
[1] = test system: seasonal allergic rhinitis (SAR); assay: Phase III clinical study in SAR, fall and mountain cedar season, Example 6; settings: human, in vivo
Source text: A total of 1,176 randomized subjects (˜294 subjects per treatment arm) were enrolled in the study.
Subjects were randomized to treatment in a 1:1:1:1 ratio to the following four treatment arms, at multiple study sites.
(§1) This study consisted of four visits to the study site. After the initial screening visit (Visit 1), subjects who met all study selection criteria were required to undergo a single-blind placebo run-in period for 7-10 days. Following the completion of the run-in period, eligible subjects meeting the randomization criteria were enrolled and randomized to one of the four treatment arms. Subjects were dispensed medication as per the randomization list. Randomized subjects were required to undergo a 2 week (14 days) treatment period as per the protocol to assess the efficacy and safety of the assigned treatment. Subjects were instructed to record the symptom scores in a symptom assessment diary.
• Change from baseline in average AM and PM subject-reported 12-hour rTNSS (reflective TNSS) over the 14-day treatment period. […] The non-nasal symptoms are assessed in a similar manner to the ocular symptoms above. […]

[2] = Pharmacokinetics of olopatadine, single-dose three-period cross-over study, Example 12; format: in vivo, human; settings: single dose nasal spray
Protocol: The pharmacokinetics of olopatadine in a fixed dose combination of mometasone furoate and olopatadine hydrochloride nasal spray was evaluated in a clinical trial. The clinical trial was a randomized, single-center, single-dose, open-label, three-period, six-sequence, cross-over study to evaluate three treatments administered as a nasal spray. The three treatments included a combination of mometasone furoate and olopatadine hydrochloride nasal spray, olopatadine hydrochloride nasal spray and […]® nasal spray. […] The study consisted of a screening visit, 3 single-dose treatment periods with washout periods of 7 to 14 days between dosing in each treatment period, an early withdrawal visit if applicable, and a follow-up telephone call (or visit) 1 to 7 days after completing the third treatment period. A total of 30 subjects were randomized to 1 of 6 treatment sequences and received at least 1 dose of study drug. All 30 subjects were included in the safety analysis set and the pharmacokinetic subset. All but 2 subjects completed the study per protocol.

[3] = Plasma pharmacokinetics of TP-1 in the Phase III study, day 1 and day 8 (steady state); format: in vivo, human; settings: human, in vivo
Source text: as §1, with “diary. They were also scheduled to have at least two blood samples for PK assessment during the treatment period.” for “diary.”
• Change from baseline in average AM and PM subject-reported 12-hour rTNSS (reflective TNSS) over the 14-day treatment period. Secondary Endpoints • Change from baseline in average AM and PM subject-reported 12-hour iTNSS (instantaneous TNSS) over the 14 day treatment period. • Change from baseline in average AM and PM subject-reported 12-hour rTOSS (reflective TOSS) over the 14-day treatment period. • Onset of action for each treatment are assessed by comparing the change from baseline in post-treatment iTNSS between each active treatment and placebo at defined time points (prior to first dose (pre-dose), 15 min, 30 min, 45 min, 60 min, 90 min, 120 min, 150 min, 180 min, 210 min, and 240 min) after the first study treatment for 4 hours. • Change from baseline in the overall Rhinoconjunctivitis Quality of Life questionnaire (RQLQ)—Standardized Activities (RQLQ(S)) score on Day 15 (Visit 4) for the Full Analysis Set (FAS). Pharmacokinetic Endpoints • Plasma PK: Maximum plasma concentration (Cmax), time to attain Cmax (Tmax), and area under the plasma concentration-time curve over the dosing interval (AUCtau) will be estimated for mometasone furoate and olopatadine on Day 1 and Day 8 based on the pharmacokinetic analysis set (PKAS). Tertiary Efficacy Endpoints Nasal Symptoms: • Change from baseline in AM subject-reported rTNSS over the 14-day treatment period. • Change from baseline in AM subject-reported iTNSS over the 14-day treatment period. • Change from baseline in PM subject-reported rTNSS over the 14-day treatment period. • Change from baseline in PM subject-reported iTNSS over the 14-day treatment period. • Change from baseline in subject-reported reflective individual nasal symptoms over the 14-day treatment period (AM, PM and average of AM and PM). • Change from baseline in subject-reported instantaneous individual nasal symptoms over the 14-day treatment period (AM, PM and average of AM and PM). • Change from baseline in average AM and PM subject-reported rTNSS and iTNSS for each day. • Change from baseline in AM subject-reported rTNSS and iTNSS for each day. • Change from baseline in PM subject-reported rTNSS and iTNSS for each day. […]

sneezing response = assay: Sneezing response in ovalbumin induced rhinitis model (whole body plethysmography); format: in vivo, guinea pigs; settings: for Inhibition of sneezing response (in words) / Number of Sneeze (0-50 min): MF 10 μg; for Percent inhibition of sneeze: MF 10 μg per animal, vs ovalbumin control; for Number of Sneeze (0-50 min): intranasal, ovalbumin challenged
Protocol: Male Dunkin Hartley guinea pigs were actively sensitized with a subcutaneous injection of 1.5 mg of ovalbumin and 20 mg of aluminum hydroxide gel on days 0 and 7. Guinea pigs were sensitized intranasally with 2% ovalbumin from days 14-17. On day 28, the animals were challenged with 6% ovalbumin intranasally. Mometasone furoate 10 μg was given intranasally 24 hours and 1 hour prior to the final ovalbumin challenge. Olopatadine hydrochloride was given intranasally 1 hour before the final ovalbumin challenge. The dosing volume was 40 μl/animal. The saline control group and ovalbumin control group received vehicle (40 μl, 0.1% Tween 80 in distilled water). Sneezing response was determined by using whole body plethysmography (Buxco Research Systems, USA) for 50 minutes after final saline or ovalbumin challenge. The procedure in Example 1 was repeated except 120 μg of olopatadine hydrochloride (based on the equivalent weight of olopatadine free base) was used. The animal groups in Table 3 below were used during this experiment. Compound administration was performed as in Example 1, except the dosing volume was 60 μl/animal. The saline control group and ovalbumin control group received vehicle (60 μl, 0.1% Tween 80 in distilled water). In vivo evaluations were performed as in Example 1.

[4] = Crystallization of olopatadine hydrochloride in the fixed dose combination aqueous suspension versus pH; format: physicochemical
[5] = test system: total cells and eosinophils in nasal lavage; assay: Nasal lavage total cell count and eosinophils in ovalbumin induced rhinitis model; format: in vivo, guinea pigs; settings: for Inhibition of total cell and eosinophils in nasal lavage (in words): MF 10 μg; for % inhibition of eosinophils / Percent inhibition of total cell count / Eosinophils × 10^5/ml nasal lavage / Total cell count × 10^5/ml nasal lavage: MF 10 μg per animal
Protocol: Male Dunkin Hartley guinea pigs were actively sensitized with a subcutaneous injection of 1.5 mg of ovalbumin and 20 mg of aluminum hydroxide gel on days 0 and 7. Guinea pigs were sensitized intranasally with 2% ovalbumin from days 14-17. On day 28, the animals were challenged with 6% ovalbumin intranasally. Mometasone furoate 10 μg was given intranasally 24 hours and 1 hour prior to the final ovalbumin challenge. Olopatadine hydrochloride was given intranasally 1 hour before the final ovalbumin challenge. The dosing volume was 40 μl/animal. The saline control group and ovalbumin control group received vehicle (40 μl, 0.1% Tween 80 in distilled water). Nasal lavage was performed at 4 hours after challenge of animals with saline or ovalbumin on day 28. Animals were anesthetized with an overdose of urethane, the trachea was exposed and nasal lavage was performed using 2 mL pre-warmed normal saline. The collected nasal lavage was taken for total cell count using a hemocytometer. The nasal lavage was centrifuged, and the cell pellet resuspended in 15 μL guinea pig serum and used for preparation of smears. Slides were stained with Leishman's stain and a differential cell count of 100 cells based on standard morphology was performed manually. The total number of eosinophils in each nasal lavage sample was calculated using the formula: [formula] Percent inhibition of eosinophils was calculated using the following formula: The procedure in Example 1 was repeated except 120 μg of olopatadine hydrochloride (based on the equivalent weight of olopatadine free base) was used. The animal groups in Table 3 below were used during this experiment. Compound administration was performed as in Example 1, except the dosing volume was 60 μl/animal. The saline control group and ovalbumin control group received vehicle (60 μl, 0.1% Tween 80 in distilled water). In vivo evaluations were performed as in Example 1.

[6] = Example 1, OH 50 μg, 4 hours after challenge

Mometasone Furoate Monohydrate and Olopatadine Hydrochloride Nasal Spray (25 mcg+600 mcg) [TP-1]
Urinary tract infection reported as adverse event [1]: 1%

CN(C)CC/C=C1/c2ccccc2COc2ccc(CC(=O)O)cc21.Cl [Olopatadine Hydrochloride, (Z)-11-[3-(dimethylamino)propylidene]-6,11-dihydrodibenz[b,e]oxepin-2-acetic acid hydrochloride]
Last time point until which quantifiable concentrations were observed [2]: 48 h | Olopatadine Tmax, Median [3]: 1.00 h | Inhibition of sneezing response (in words) (sneezing response; Example 1, OH 50 μg): did not show significant inhibition | Percent inhibition of sneeze (sneezing response; Example 1, OH 50 μg): 45% | Number of Sneeze (0-50 min) (sneezing response; Example 1, per animal: OH 50 μg, combination 50 (OH) & 10 (MF)): 12.29 | Inhibition of sneezing response (in words) (sneezing response; Example 2, OH 120 μg): did not show significant inhibition | Percent inhibition of sneeze (sneezing response; Example 2, OH 120 μg): 51% | Number of Sneeze (0-50 min) (sneezing response; Example 2, per animal: OH 120 μg, combination 120 (OH) & 10 (MF)): 17.90 | State of olopatadine hydrochloride in the fixed dose combination aqueous suspension ([4]; pH of 5 to 5.5): crystallizes out | State of olopatadine hydrochloride in the aqueous suspension ([4]; pH of about 3.3 to about 4.1): remains dissolved | Inhibition of total cell and eosinophils in nasal lavage (in words) ([5]; Example 1, OH 50 μg): did not show significant inhibition | % inhibition of eosinophils ([5]; Example 1, OH 50 μg): 2% | Percent inhibition of total cell count ([5]; Example 1, OH 50 μg): 3% | Eosinophils × 10^5/ml nasal lavage [5, 6]: 3.64 × 10^5/ml | Total cell count × 10^5/ml nasal lavage [5, 6]: 6.63 × 10^5/ml | Inhibition of total cell and eosinophils in nasal lavage (in words) ([5]; Example 2, OH 120 μg): did not show significant inhibition | % inhibition of eosinophils ([5]; Example 2, OH 120 μg): 8% | Eosinophils × 10^5/ml nasal lavage ([5]; Example 2, OH 120 μg): 3.08 × 10^5/ml | Percent inhibition of total cell count ([5]; Example 2, OH 120 μg): 17% | Total cell count × 10^5/ml nasal lavage ([5]; Example 2, OH 120 μg): 5.83 × 10^5/ml
